# Structures can show the parent of a compound that is named as a salt.
# Tests used:
# [1] = test system: SPF male rats, OFA strain; experiment: Anti-inflammatory activity: paw swelling after subcutaneous plantar injection of carraghenine, oral administration; format: in vivo; conditions: for ED50: read-out: ED50 (50% effective dose), anti-inflammatory; for inhibition in vivo at 16 mg/kg: 16 mg/kg oral; for inhibition in vivo at 512 mg/kg: 512 mg/kg oral
# Experimental: Anti-inflammatory activity
# The products to be tested are administered orally to batches of 12 SPF male rats, OFA strain, weighing 120-130 g, 2 hours and 30 minutes (1/2 dose each time) before the subcutaneous plantar injection of 0.05 ml of a 1% strength solution of carraghenine. The volume of the back paw which received the phlogogenic agent is measured at regular intervals. The 50% effective dose is calculated at the moment of greatest swelling of the controls.
# The results are given in Tables I to IV below, in which the percentage reduction in the inflammation is noted.
# [2] = test system: male mice (SPF1, OF1 strain); experiment: Analgesic activity: inhibition of pain reactions (abdominal twistings) after intraperitoneal phenylbenzoquinone, oral administration; format: in vivo; conditions: for inhibition in vivo at 16 mg/kg: 16 mg/kg oral; for inhibition in vivo at 32 mg/kg: 32 mg/kg oral; for inhibition in vivo at 64 mg/kg: 64 mg/kg oral; for inhibition in vivo at 256 mg/kg: 256 mg/kg oral; for ED50: read-out: ED50 (50% effective dose), analgesic; for inhibition in vivo at 8 mg/kg: 8 mg/kg oral; for inhibition in vivo at 512 mg/kg: 512 mg/kg oral
# Experimental: The products tested are administered orally to batches of 6 male mice (SPF1, OF1 strain) weighing 19-20 g.
# 1 hour later, 0.3 ml of a 0.02% strength solution of phenylbenzoquinone is injected intraperitoneally into each mouse and, from the 5th to the 10th minute after the latter treatment, the number of pain reactions (abdominal twistings) is counted.
# Table V to VIII below give the percentage inhibition of these reactions.
# [3] = Rattus norvegicus, po, 64 mg/kg oral, carraghenine, read-out: percentage reduction in the inflammation
# [4] = Rattus norvegicus, po, 128 mg/kg oral, carraghenine, read-out: percentage reduction in the inflammation
# [5] = Rattus norvegicus, po, 256 mg/kg oral, carraghenine, read-out: percentage reduction in the inflammation
# [6] = Rattus norvegicus, po, at the moment of greatest swelling of the controls
# [7] = Mus musculus, po, read-out: percentage inhibition of pain reactions
# [8] = Mus musculus, po, 128 mg/kg oral, read-out: percentage inhibition of pain reactions
# [9] = Rattus norvegicus, po, 32 mg/kg oral, carraghenine, read-out: percentage reduction in the inflammation
# [10] = Rattus norvegicus, po, carraghenine, read-out: percentage reduction in the inflammation
SMILES,"inhibition in vivo at 64 mg/kg [1, 3]","inhibition in vivo at 128 mg/kg [1, 4]","inhibition in vivo at 256 mg/kg [1, 5]","ED50 [1, 6]","inhibition in vivo at 16 mg/kg [2, 7]","inhibition in vivo at 32 mg/kg [2, 7]","inhibition in vivo at 64 mg/kg [2, 7]","inhibition in vivo at 128 mg/kg [2, 8]","inhibition in vivo at 256 mg/kg [2, 7]","ED50 ([2]; Mus musculus, po)","inhibition in vivo at 32 mg/kg [1, 9]","inhibition in vivo at 16 mg/kg [1, 10]",other results
"CC1CC(C)c2cc(CC(=O)O)ccc21 (stereo not drawn) [Example 1, [1,3-Dimethyl-indanyl-(5)]-acetic acid]",15%,42%,88%,130 mg/kg,25%,28%,67%,89%,94%,43 mg/kg,,,
"CC1CC(C)c2cc(CC(=O)O)c(Cl)cc21 (stereo not drawn) [Example 3, [6-Chloro-1,3-dimethyl-indanyl-(5)]-acetic acid]",24%,36%,56%,200 mg/kg,33%,51%,66%,66%,94%,33 mg/kg,,,
"CC(C)C1Cc2ccc(CC(=O)O)cc2C1 (stereo not drawn) [Example 4, [2-Isopropyl-indanyl-(5)]-acetic acid]",19%,47%,80%,120 mg/kg,6%,33%,70%,99%,,40 mg/kg,10%,,
"O=C(O)Cc1ccc2c(c1)CCC2C1CCCCC1 (stereo not drawn) [Example 5, [1-Cyclohexyl-indanyl-(5)]-acetic acid]",,,,,,,32%,,58%,~150 mg/kg,,,
"CC(C(=O)O)c1ccc2c(c1)CC(C(C)C)C2 (stereo not drawn) [Example 7, 2-Methyl-[2-Isopropyl-indanyl-(5)]-acetic acid]",73%,75%,,22 mg/kg,61%,96%,,,,14 mg/kg,61%,43%,"inhibition in vivo at 8 mg/kg ([1]; Rattus norvegicus, po, 8 mg/kg oral, carraghenine, read-out: percentage reduction in the inflammation): 29%; inhibition in vivo at 8 mg/kg [2, 7]: 17%"
"CC(C)C1Cc2ccc(CC(=O)OCCN3CCOCC3)cc2C1 (stereo not drawn) [Example 8, Hydrochloride of the morpholino-ethyl ester of [2-isopropyl-indanyl-(5)]-acetic acid]",23%,52%,62%,150 mg/kg,,10%,67%,73%,90%,70 mg/kg,17%,,
"CC(C(=O)OCCN1CCOCC1)c1ccc2c(c1)CC(C(C)C)C2 (stereo not drawn) [Example 9, Morpholino-ethyl ester of 2-methyl-[2-isopropyl-indanyl-(5)]-acetic acid]",80%,,,17 mg/kg,,28%,26%,79%,97%,78 mg/kg,68%,47%,
"O=C(O)Cc1ccc2c(c1)CC(C1CCCCC1)C2 (stereo not drawn) [Example 11, [2-Cyclohexyl-indanyl-(5)]-acetic acid]",8%,13%,13%,> 512 mg/kg,,15%,29%,58%,59%,140 mg/kg,4%,,"inhibition in vivo at 512 mg/kg [1, 10]: 32%; inhibition in vivo at 512 mg/kg [2, 7]: 83%"
"CC1Cc2ccc(CC(=O)O)cc2C1 (stereo not drawn) [Example 12, [2-Methyl-indanyl-(5)]-acetic acid]",49%,71%,80%,70 mg/kg,,9%,20%,46%,67%,175 mg/kg,23%,15%,"inhibition in vivo at 512 mg/kg [2, 7]: 75%"
"CC1(C)Cc2ccc(CC(=O)O)cc2C1 [Example 13, [2,2-Dimethyl-indanyl-(5)]-acetic acid]",37%,47%,51%,200 mg/kg,15%,30%,71%,83%,,46 mg/kg,29%,23%,
"CC(C(=O)O)c1ccc2c(c1)CC(C1CCCCC1)C2 (stereo not drawn) [Example 14, 2-Methyl-[2-cyclohexyl-indanyl-(5)]-acetic acid]",16%,17%,31%,> 512 mg/kg,,20%,35%,52%,62%,110 mg/kg,5%,11%,"inhibition in vivo at 512 mg/kg [1, 10]: 34%; inhibition in vivo at 512 mg/kg [2, 7]: 93%"
"CC(C(=O)O)c1ccc2c(c1)CC(C)(C)C2 (stereo not drawn) [Example 16, 2-Methyl-[2,2-dimethyl-indanyl-(5)]-acetic acid]",37%,61%,94%,73 mg/kg,30%,77%,96%,,,19 mg/kg,20%,4%,"inhibition in vivo at 8 mg/kg [2, 7]: 13%"
"CCC(C(=O)O)c1ccc2c(c1)CC(C(C)C)C2 (stereo not drawn) [Example 17, 2-Ethyl-[2-isopropyl-indanyl-(5)]-acetic acid]",,,,,,,28%,,83%,,,13%,"percentage reduction in the inflammation ([1]; 32 mg/kg oral, rat, carraghenine): 24%; percentage reduction in the inflammation ([1]; 64 mg/kg oral, rat, carraghenine): 30%; percentage reduction in the inflammation ([1]; 128 mg/kg oral, rat, carraghenine): 38%; percentage reduction in the inflammation ([1]; 256 mg/kg oral, rat, carraghenine): 43%; ED50 (50% effective dose), anti-inflammatory ([1]; oral, rat, at the moment of greatest swelling of the controls): > 256 mg/kg; percentage inhibition of pain reactions ([2]; 128 mg/kg oral, mouse): 70%; inhibition in vivo at 512 mg/kg [2, 7]: 100%; ED50 (50% effective dose), analgesic ([2]; oral, mouse): 100 mg/kg"
"CCC1Cc2ccc(C(C)C(=O)O)cc2C1 (stereo not drawn) [Example 18, 2-Methyl-[2-ethyl-indanyl-(5)]-acetic acid]",61%,66%,77%,36 mg/kg,75%,95%,,,,6.5 mg/kg,54%,31%,"inhibition in vivo at 2 mg/kg ([2]; Mus musculus, po, 2 mg/kg oral, read-out: percentage inhibition of pain reactions): 18%; inhibition in vivo at 4 mg/kg ([2]; Mus musculus, po, 4 mg/kg oral, read-out: percentage inhibition of pain reactions): 27%; inhibition in vivo at 8 mg/kg [2, 7]: 58%"

# — patent US4182896A, “Indane derivatives” (Societe Hexachimie, priority 1974, dated 1980)
